Source: patent US20220202835A1, “INJECTABLE CLORSULON COMPOSITIONS, METHODS AND USES THEREOF” (Boehringer Ingelheim Animal Health USA Inc., priority 2019, published 2022)

Key:
[1] = Study 2: clorsulon plasma pharmacokinetics in cattle (LC-MS); assay type: in vivo; conditions: for Maximum plasma concentrations: cattle
Procedure: Whole blood samples for analysis of plasma for analysis of clorsulon were collected from the jugular vein. Samples were collected in ˜7.5 mL lithium heparinized tubes for plasma preparation once prior to treatment on Day-2±1. Thereafter, blood samples were collected according to the Schedule of Operations (Table 3). The time of blood sampling was recorded, and care was taken to avoid cross-contamination of samples during sample collection, storage, and processing. Plasma was recovered from each sample, aliquoted (two aliquots) and stored frozen (at or below −20° C.) until required for assays. The cryo-tubes were labeled with Study Number, type of sample, date, Study Day/time of sampling, and animal ID.
One aliquot with plasma was used for analysis for clorsulon concentrations using currently High Performance Liquid Chromatography-Mass Spectrometry (LC-MS) methodology.
Plasma samples were assayed for clorsulon.
If quantifiable plasma concentrations were determined for an animal, pharmacokinetic analysis was performed as described below. Clorsulon plasma concentrations were determined for an animal at each sampling time, when appropriate. […] The mean concentration-time profiles will be obtained by averaging the concentrations at each sampling time point for all treated animals.
The therapeutic efficacy and pharmacokinetic parameters of clorsulon were evaluated when administered subcutaneously as 30% (w/v) clorsulon formulation to cattle experimentally infected with liver flukes (Fasciola hepatica). This study differs from Study Number 1 in that there is no administration of 10% (w/v) clorsulon and only immature (four week old) F. hepatica flukes were used.

Fasciola hepatica [2] = experiment: Study 2: efficacy against four week old Fasciola hepatica in cattle
Fasciola hepatica [3] = experiment: Study 1: efficacy against induced Fasciola hepatica infection in cattle (fluke counts at necropsy); conditions: subcutaneously to cattle at 6 and 8 mg/kg bodyweight as a 30% w/v solution

- Maximum plasma concentrations ([1]; Group 2: 30% w/v solution, 8 mg clorsulon/kg SC): 5740 ± 1160 ng/mL
- Maximum plasma concentrations ([1]; Group 3: 30% w/v solution, 6 mg clorsulon/kg SC): 4430 ± 988 ng/mL
- Maximum plasma concentrations ([1]; Group 4: 30% w/v solution, 4 mg clorsulon/kg SC): 3140 ± 530 ng/mL
- time at which maximum plasma concentrations were reached ([1]; Groups 2-4 (4, 6, 8 mg/kg SC), 12 out of 18 animals): ≤ 12 h
SMILES: Nc1cc(C(Cl)=C(Cl)Cl)c(S(N)(=O)=O)cc1S(N)(=O)=O [clorsulon, 4-amino-6-(1,2,2-trichloroethenyl)benzene-1,3-disulfonamide]
- Eff (%) against Fasciola hepatica (Fasciola hepatica [2]; Group 2: 30% w/v solution, 8 mg/kg subcutaneously once on Day 0 (4 week old flukes)): 99.6%
- Eff (%) against Fasciola hepatica (Fasciola hepatica [2]; Group 3: 30% w/v solution, 6 mg/kg subcutaneously once on Day 0 (4 week old flukes)): 99.9%
- Eff (%) against Fasciola hepatica (Fasciola hepatica [2]; Group 4: 30% w/v solution, 4 mg/kg subcutaneously once on Day 0 (4 week old flukes)): 92.9%
- efficacy against early immature (four and six week old) F. hepatica (Fasciola hepatica [3]): 98-100%
